According to US9849131B2 (AUTIFONY THERAPEUTICS LIMITED, priority 2009, dated 2017):

Tests used:
hKv3.2 = biological target: T1, hKv3.2 (Homo sapiens, UniProt Q96PR1); experiment: IonWorks Quattro assay, secondary analysis of activation time constant (Tauact); type: cell-based; conditions: for acts as positive or negative modulator of Kv3.1 and/or Kv3.2: classification from effect on Tauact; for effect on the value of Tauact compared to the vehicle control: vehicle DMSO 0.5%
T1 construct: expressed in transfected cells; host or cells: CHO-K1
T1 sequence (Q96PR1 1-638): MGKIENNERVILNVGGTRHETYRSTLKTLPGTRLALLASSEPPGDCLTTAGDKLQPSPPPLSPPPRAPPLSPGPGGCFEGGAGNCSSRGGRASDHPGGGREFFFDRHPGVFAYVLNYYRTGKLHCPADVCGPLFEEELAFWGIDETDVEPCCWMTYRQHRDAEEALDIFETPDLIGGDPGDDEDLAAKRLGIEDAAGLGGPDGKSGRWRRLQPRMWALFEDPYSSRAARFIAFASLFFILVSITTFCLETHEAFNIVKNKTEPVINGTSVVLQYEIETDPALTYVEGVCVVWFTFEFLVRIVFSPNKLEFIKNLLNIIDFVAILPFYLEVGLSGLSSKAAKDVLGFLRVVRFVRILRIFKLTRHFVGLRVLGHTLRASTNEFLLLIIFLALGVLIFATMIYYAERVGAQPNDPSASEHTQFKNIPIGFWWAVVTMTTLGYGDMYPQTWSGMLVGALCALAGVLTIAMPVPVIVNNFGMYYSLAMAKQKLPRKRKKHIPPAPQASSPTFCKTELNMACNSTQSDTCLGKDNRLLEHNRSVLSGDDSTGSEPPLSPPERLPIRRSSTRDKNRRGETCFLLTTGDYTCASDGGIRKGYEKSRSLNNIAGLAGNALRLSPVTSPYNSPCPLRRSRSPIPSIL
Procedure: A stable cell line expressing human Kv3.2 channels (hKv3.2) was created by transfecting Chinese Hamster Ovary (CHO)-K1 cells with a pCIH5-hKv3.2 vector. Cells were cultured in DMEM/F12 medium supplemented by 10% Foetal Bovine Serum, 1× non-essential amino acids (Invitrogen) and 500 ug/ml of Hygromycin-B (Invitrogen). Cells were grown and maintained at 37° C. in a humidified environment containing 5% CO2 in air.
The day of the experiment, cells were removed from the incubator and the culture medium removed. Cells were washed with 5 ml of Dulbecco's PBS (DPBS) calcium and magnesium free and detached by the addition of 3 ml Versene (Invitrogen, Italy) followed by a brief incubation at 37° C. for 5 minutes. The flask was tapped to dislodge cells and 10 ml of DPBS containing calcium and magnesium was added to prepare a cell suspension. The cell suspension was then placed into a 15 ml centrifuge tube and centrifuged for 2 min at 1200 rpm. After centrifugation, the supernatant was removed and the cell pellet re-suspended in 4 ml of DPBS containing calcium and magnesium using a 5 ml pipette to break […] up the pellet. Cell suspension volume was then corrected to give a cell concentration for the assay of approximately 3 million cells per ml.
Experiments were conducted at room temperature using IonWorks Quattro™ planar array electrophysiology technology (Molecular Devices Corp.) with PatchPlate™ PPC. Stimulation protocols and data acquisition were carried out using a microcomputer (Dell Pentium 4). Planar electrode hole resistances (Rp) were determined by applying a 10 mV voltage step across each well. These measurements were performed before cell addition. […] Following this, amphotericin-B solution was added to the intracellular face of the electrode to achieve intracellular access. Cells were held at −70 mV. Leak subtraction was conducted in all experiments by applying 50 ms hyperpolarizing (10 mV) prepulses to evoke leak currents followed by a 20 ms period at the holding potential before test pulses. From the holding potential of −70 mV, a first test pulse to −15 mV was applied for 100 ms and following a further 100 ms at −70 mV, a second pulse to 40 mV was applied for 50 ms. Cells were then maintained for a further 100 ms at −100 mV and then a voltage ramp from −100 mV to 40 mV was applied over 200 ms. In all experiments, the test pulses protocol was performed in the absence (pre-read) and presence (post-read) of the test compound. Pre- and post-reads were separated by the compound addition followed by a 3 minute incubation.
The magnitude of the effect of a compound can be determined from the time constant (Tauact) obtained from a non-linear fit, using the equation given below, of the rise in Kv3.1 or Kv3.2 currents following the start of the depolarising voltage pulse. Y=(Y0−Ymax)*exp(−K*X)+Ymax
Where: • Y0 is the current value at the start of the depolarising voltage pulse; • Ymax is the plateau current;
K is the rate constant, and Tauact is the activation time constant, which is the reciprocal of K.

[1] = tested on: fast-firing interneurons in the somatosensory cortex; experiment: Recordings from fast-firing interneurons driven by high frequency current pulse trains (FIG. 2); type: cell-based, mouse; conditions: 1 microM; trains of depolarising current pulses at 100, 200, 300 Hz; n=6
From the text: Kv3.1 and Kv3.2 channels must activate and deactivate very rapidly in order to allow neurons to fire actions potentials at high frequency (Rudy and McBain, 2001, Trends in Neurosciences 24, 517-526). Slowing of activation will delay the onset of action potential repolarisation; slowing of deactivation will lead to hyperpolarising currents that reduce the excitability of the neuron and delay the time before the neuron can fire a further action potential. Together these two slowing effects will lead to a reduction rather than a facilitation of the neurons ability to fire at high frequencies. […] This latter effect can be observed from recordings made from “fast-firing” interneurons in the cortex of rat brain, using electrophysiological techniques, in vitro (FIG. 2).
The neurons are induced to fire at high frequencies by trains of high frequency depolarising current pulses at 100, 200, and 300 Hz. The ability of the neuron to fire an action potential on each pulse is determined. […] In the absence of drug (closed circles, n=9), the neurons maintained a spike probability of 1 up to 300 Hz.

[2] = tested on: parvalbumin-positive interneurons in the somatosensory cortex; experiment: Firing of parvalbumin-positive interneurons in somatosensory cortex slices, in vitro (Example 90); type: cell-based, mouse; conditions: TEA 0.5 mM vs control slices; at least 1 hour incubation
[3] = tested on: high voltage-activated potassium currents in MNTB neurons (presumed to be mediated by Kv3.1 channels); experiment: Potassium currents recorded from MNTB neurons, in vitro (Example 91); type: cell-based, mouse; conditions: TEA 1 mM; voltage steps to +40 mV
Procedure: Male CBA/Ca mice (aged 12-16 days) were used in these experiments (in accordance with the UK Animals Scientific Procedures Act, 1986). Brain slices containing the medial nucleus of the trapezoid body (MNTB) were prepared as described previously (Brew and Forsythe, 2005).
Chemicals and reagents were purchased from Sigma, (Poole, UK) unless otherwise noted. EXAMPLE 19 was dissolved in DMSO and diluted in ACSF to the required concentration.
Recordings from identified MNTB neurons were conducted as previously described (Brew and Forsythe, 2005). Slices was placed in a superfusion chamber on an inverted microscope stage and continuously perfused with gassed (95% O2-5% CO2) ACSF at a rate of 1 ml min^−1 at room temperature. Whole-cell recordings were made from visually identified MNTB neurons using an […] amplifier (Molecular Devices, Union City, Calif., USA). Patch solution comprised (in mM) potassium gluconate (97.5), KCl (32.5), Hepes (40), EGTA (5), MgCl2 (1), Na2 phosphocreatin (5), pH 7.2 with KOH. Pipettes had resistances of 3-5 MΩ and series resistances were 6-10 MΩ (compensated by 70%, 10 μs lag). Access resistance was frequently monitored and the recording discarded if increases were more than 2 MΩ. […]

Male CD-1 mice = experiment: Psychostimulant (amphetamine)-induced hyperactivity in mice (Example 93); conditions: mouse

SMILES: CC[C@H]1NC(=O)N(c2ccc(Oc3ccc(C#N)c(OC(F)(F)F)c3)nc2)C1=O [Example 82, 4-({5-[(4R)-4-ethyl-2,5-dioxo-1-imidazolidinyl]-2-pyridinyl}oxy)-2-[(trifluoromethyl)oxy]benzonitrile]
- acts as positive or negative modulator of Kv3.1 and/or Kv3.2 (hKv3.2): positive modulators

SMILES: CC[C@H]1NC(=O)N(c2ccc(Oc3ccc(C#N)c(C4CC4)c3)nc2)C1=O [Example 76, 2-cyclopropyl-4-({5-[(4R)-4-ethyl-2,5-dioxo-1-imidazolidinyl]-2-pyridinyl}oxy)benzonitrile]
- acts as positive or negative modulator of Kv3.1 and/or Kv3.2 (hKv3.2): positive modulators
- Tauact mean (hKv3.2; hKv3.2, step to −15 mV, compound 3.1 μM (concentration giving ~0.3 nA current)): 7.6 ms

SMILES: CC[C@H]1NC(=O)N(c2ccc(Oc3ccc(C#N)c(C(C)C)c3)nc2)C1=O [Example 77, 4-({5-[(4R)-4-ethyl-2,5-dioxo-1-imidazolidinyl]-2-pyridinyl}oxy)-2-(1-methylethyl)benzonitrile]
- acts as positive or negative modulator of Kv3.1 and/or Kv3.2 (hKv3.2): positive modulators

SMILES: CC[C@@]1(C)NC(=O)N(c2ccc(Oc3ccc(C)c(OC)c3)nc2)C1=O [Example 30, (5R)-5-ethyl-5-methyl-3-(6-{[4-methyl-3-(methyloxy)phenyl]oxy}-3-pyridinyl)-2,4-imidazolidinedione]
- acts as positive or negative modulator of Kv3.1 and/or Kv3.2 (hKv3.2): positive modulators

SMILES: CC[C@H]1NC(=O)N(c2ccc(Oc3ccc(C#N)cc3C3CC3)nc2)C1=O [Example 70, 3-cyclopropyl-4-({5-[(4R)-4-ethyl-2,5-dioxo-1-imidazolidinyl]-2-pyridinyl}oxy)benzonitrile]
- acts as positive or negative modulator of Kv3.1 and/or Kv3.2 (hKv3.2): positive modulators

SMILES: CC1(C)NC(=O)N(c2ccc(Oc3cccc4c3C3(CC3)CO4)nc2)C1=O [Example 88, 5,5-dimethyl-3-[6-(spiro[1-benzofuran-3,1′-cyclopropan]-4-yloxy)-3-pyridinyl]-2,4-imidazolidinedione]
- acts as positive or negative modulator of Kv3.1 and/or Kv3.2 (hKv3.2): negative modulators
- effect on the value of Tauact compared to the vehicle control (hKv3.2; hKv3.2): markedly increase

SMILES: CC[C@H]1NC(=O)N(c2ccc(Oc3cccc4c3C3(CC3)CO4)nc2)C1=O [Example 87, (5R)-5-ethyl-3-[6-(spiro[1-benzofuran-3,1′-cyclopropan]-4-yloxy)-3-pyridinyl]-2,4-imidazolidinedione]
- ability of neurons to fire an action potential on each pulse (spike probability) [1]: unable to follow trains at the highest frequency
- acts as positive or negative modulator of Kv3.1 and/or Kv3.2 (hKv3.2): negative modulators
- effect on the value of Tauact compared to the vehicle control (hKv3.2; hKv3.2): markedly increase

SMILES: CC[N+](CC)(CC)CC [TEA, tetraethylammonium, reference compound]
- maximal frequency of action potential firing in response to step currents [2]: lower maximal frequency
- amplitude of outward high voltage-activated potassium currents [3]: significantly reduced

SMILES: CCc1cc(Oc2ccc(N3C(=O)N[C@H](CC)C3=O)cn2)ccc1C#N [Example 78]
- acts as positive or negative modulator of Kv3.1 and/or Kv3.2 (hKv3.2): positive modulators

SMILES: CC[C@H]1NC(=O)N(c2ccc(Oc3ccc(C#N)cc3C(C)(C)C)nc2)C1=O [Example 71, 3-(1,1-dimethylethyl)-4-({5-[(4R)-4-ethyl-2,5-dioxo-1-imidazolidinyl]-2-pyridinyl}oxy)benzonitrile]
- acts as positive or negative modulator of Kv3.1 and/or Kv3.2 (hKv3.2): negative modulators
- effect on the value of Tauact compared to the vehicle control (hKv3.2; hKv3.2): markedly increase

SMILES: CC(N)Cc1ccccc1 (stereo not shown) [Amphetamine, amphetamine, reference compound]
- Total Distance Travelled (cm) (Male CD-1 mice; amphetamine 2.0 mg/kg i.p. alone, 60 minutes, mean ± sem): 16304 ± 3309 cm
- effect on total distance travelled (Male CD-1 mice; amphetamine alone 2 mg/kg i.p.): large and significant increase

SMILES: CC[C@H]1NC(=O)N(c2ccc(Oc3ccc(C#N)c(OC(C)C)c3)nc2)C1=O [Example 80, 4-({5-[(4R)-4-ethyl-2,5-dioxo-1-imidazolidinyl]-2-pyridinyl}oxy)-2-[(1-methylethyl)oxy]benzonitrile]
- acts as positive or negative modulator of Kv3.1 and/or Kv3.2 (hKv3.2): positive modulators
